“Also recorded” adds a separate entry of the source. Marks after values point to notes of the source that are not given here. Starred links: 1 amine or outer side, 2 acyl side, 3 side chain; linkers in the order of their positions; H or OH if unused. Non-standard residues stand in square brackets, D forms with d. No end group written: not given here. *: point of attachment. Dpa = quench label, O=C([C@H](CNc1ccc([N+](=O)[O-])cc1[N+](=O)[O-])N[*:1])[*:2]; Mca = COc1ccc2c(CC(=O)*)cc(=O)oc2c1
Tests used:
[1] = target: T1, IGS5 polypeptide (His6-tagged IGS5 ectodomain) (Homo sapiens, UniProt Q495T6, V306M); assay: Hydrolysis of vasoactive peptides and PACAP(1-27) by IGS5 polypeptide (HPLC); format: biochemical; details: for % Hydrolysis by IGS5 Polypeptide: 0.5 μM substrate, 2 h, 37° C.
T1 construct: made in house; host or cells: Spodoptera frugiperda Sf9 (baculovirus IGBV73)
T1 sequence (Q495T6 with tags, fused parts or gaps V306M): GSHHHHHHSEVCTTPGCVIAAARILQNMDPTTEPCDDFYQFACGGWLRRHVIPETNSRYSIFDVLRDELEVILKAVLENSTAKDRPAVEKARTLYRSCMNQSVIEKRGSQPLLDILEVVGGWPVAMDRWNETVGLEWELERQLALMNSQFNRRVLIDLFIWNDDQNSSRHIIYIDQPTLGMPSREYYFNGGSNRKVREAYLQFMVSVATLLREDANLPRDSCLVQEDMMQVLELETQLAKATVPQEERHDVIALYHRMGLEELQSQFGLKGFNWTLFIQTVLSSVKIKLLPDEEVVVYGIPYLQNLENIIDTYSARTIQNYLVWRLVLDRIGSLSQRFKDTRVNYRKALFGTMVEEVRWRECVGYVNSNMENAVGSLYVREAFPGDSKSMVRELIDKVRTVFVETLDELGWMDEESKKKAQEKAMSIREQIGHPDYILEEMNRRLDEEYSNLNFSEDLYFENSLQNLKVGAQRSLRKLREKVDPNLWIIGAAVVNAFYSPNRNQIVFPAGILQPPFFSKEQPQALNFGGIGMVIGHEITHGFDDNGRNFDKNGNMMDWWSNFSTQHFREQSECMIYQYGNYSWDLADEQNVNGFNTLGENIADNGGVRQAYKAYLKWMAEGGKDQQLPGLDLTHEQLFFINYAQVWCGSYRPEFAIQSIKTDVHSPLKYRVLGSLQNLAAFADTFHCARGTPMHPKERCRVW
Method: (§1) The enzymatic activity of IGS5 polypeptides of the invention was tested with regard to the metabolism of biologically active peptides. In particular it was tested whether these IGS5 polypeptides may act on a variety of vasoactive peptides known in the state of the art e.g. such like atrial natriuretic peptide (ANP), bradykinin, big endothelin (Big ET-1), endothelin (ET-1), substance P and angiotensin-1. In the context of the present invention in particular it was tested whether the IGS5 ectodomain, which is a novel human metalloprotease, hydrolyzes said vasoactive peptides. For comparison the assay was also performed for a known member of the metalloprotease family which was described earlier as soluble secreted endopeptidase (SEP) by Ikeda, Emoto et al. (J. Biol. Chem., Vol. 274 (1999): pp. 32469-32477). Furthermore, it was tested whether the activity of IGS5 to convert a Big-ET-1 analogue (the so-called 17 aa Big-ET) may be inhibited by reference compounds that are used to determine the inhibition properties with regard to enzymes having ECE and/or NEP-characteristics. […] It was then checked whether the activity of IGS5 to convert PACAP(1-27) may be inhibited by a compound known to be a IGS5 inhibitor. The compound used to test the inhibition of IGS5-activity on PACAP(1-27) was the active metabolite of (3S,2′R)-3-{1-[2′-(ethoxycarbonyl)-4′-phenylbutyl]-cyclopentane-1-carbonylamino}-2,3,4,5-tetrahydro-2-oxo-1H-1-benzazepine-1-acetic acid (compound Ia-2 from WO 02/094176).
The enzymatic reaction was subsequently terminated by heating to 95° C. for 5 min. After centrifugation (Heraeus Biofuge B, 3 min) the supernatant was subjected to HPLC
(§2) In order to separate the remaining substrate from the cleavage products reversed phase HPLC technique was used with a CC 125/4 Nucleosil 300/5 C18 RP column and a CC 8/4 Nucleosil 100/5 C18 precolumn (commercially available from Macherey-Nagel, Duren, Germany). Thus, 60 μl of the reaction samples obtained in Example 7B were injected into the HPLC, and the column was eluted at a flow rate of 1 ml/min by applying the following gradient and solutions: […]
(§3) Peptides were detected by absorbance at 214 nm (UV spectroscopy) and/or by fluorescence with an excitation wavelength of 328 nm and an emission wavelength of 393 nm.
% Hydrolysis: For detection of substrate cleavage, the percentage of hydrolysis was calculated by directly comparing the substance peak areas in HPLC traces of the sample without addition of any IGS5 enzyme activity (blank) and of the samples with addition of IGS5 enzyme (sample). % hydrolysis was calculated on basis of the respective peak areas. % hydrolysis=100*(1−(Asample/Ablank))

[2] = target: T2, SEP (soluble secreted endopeptidase) (Mus musculus, UniProt Q9JLI3); details: 100 μl assay volume; 10 μg partially purified SEP; 0.5 μM substrate; 12 h, 37° C.; cited from earlier work
T2 sequence (Q9JLI3 1-765): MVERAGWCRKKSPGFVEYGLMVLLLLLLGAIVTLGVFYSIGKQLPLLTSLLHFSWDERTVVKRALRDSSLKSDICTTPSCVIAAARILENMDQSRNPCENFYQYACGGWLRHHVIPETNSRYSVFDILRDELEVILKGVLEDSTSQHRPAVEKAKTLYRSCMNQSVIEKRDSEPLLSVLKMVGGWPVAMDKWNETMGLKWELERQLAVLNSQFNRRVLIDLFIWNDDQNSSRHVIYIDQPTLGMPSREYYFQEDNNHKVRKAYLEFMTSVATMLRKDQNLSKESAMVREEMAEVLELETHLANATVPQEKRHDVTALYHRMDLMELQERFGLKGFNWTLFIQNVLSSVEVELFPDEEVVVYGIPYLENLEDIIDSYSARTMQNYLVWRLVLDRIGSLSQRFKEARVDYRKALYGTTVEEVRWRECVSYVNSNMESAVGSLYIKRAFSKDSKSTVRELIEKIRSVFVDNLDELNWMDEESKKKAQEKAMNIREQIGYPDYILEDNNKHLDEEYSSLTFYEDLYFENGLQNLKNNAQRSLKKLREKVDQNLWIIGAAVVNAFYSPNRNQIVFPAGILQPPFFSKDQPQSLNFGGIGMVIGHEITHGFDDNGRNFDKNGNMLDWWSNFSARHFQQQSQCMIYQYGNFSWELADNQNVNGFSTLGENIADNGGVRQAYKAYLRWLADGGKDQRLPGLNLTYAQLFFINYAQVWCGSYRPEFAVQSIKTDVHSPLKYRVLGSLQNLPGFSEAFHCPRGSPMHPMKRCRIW

[3] = target: T1, IGS5 polypeptide (His6-tagged IGS5 ectodomain); assay: Enzyme inhibition assay: IGS5 conversion of the Big-ET-1 analogue 17 aa Big-ET (HPLC); format: biochemical; details: for Inhibition of IGS5 (result in words): conversion of Big-ET-1 analogue 17 aa Big-ET; for IC50: substrate 17 aa Big-ET, 60 min, 37° C., read-out: Inhibition of IGS5 polypeptide's activity to convert the Big-ET-1 analogue 17 aa Big-ET, IC50
Method: as §1
All test compounds were dissolved in DMSO at 10 mM and were further diluted with assay buffer.
A quantity of 70 μl, of the assay buffer, of 10 μl enzyme working solution (10 μg/ml) and of 10 μl test compound solution were mixed in an Eppendorf vial and preincubated at 37° C. for 15 minutes. Then, 10 μl substrate stock solution was added and the reaction mixture was incubated at 37° C. for 60 minutes to allow for enzymatic hydrolysis. Subsequently the enzymatic reaction was terminated by heating at 95° C. for 5 minutes. After centrifugation (Heraeus Biofuge B, 3 min) the supernatant was subjected to HPLC analysis.
as §2, §3
% Inhibition: The increasing fluorescence signal of the HPLC-peak of the peptide with the unquenched Mca-fluorophor after hydrolysis was taken as the basis for any calculation. This signal was compared for the samples with and without inhibitor and % inhibition was calculated on basis of the respective peak areas. If non labeled peptide substrates were used, basis of the calculation of % inhibition was the peak area of the remaining undegraded peptide substrate for an inhibitory test compound containing sample (inhib) in comparison to samples containing only peptide without addition of any IGS5 enzyme activity (blank) and to samples containing peptide and enzyme without inhibitor (control) according to the following equation % inhib=100*((Ainhib−Acontrol)/(Ablank−Acontrol)) All samples were run in duplicate and mean values were used. A standard inhibitor (10 nM and 100 nM Phosphoramidon) and/or a solvent control (0.1%) was added to each assay run.

[4] = 100 μl assay volume, 100 ng IGS5 polypeptide

Row | Hydrolysis by IGS5 in vitro (result in words) [1] | Compound | % Hydrolysis by IGS5 Polypeptide [1, 4] | % Hydrolysis by SEP (Ikeda, Emoto et al., 1999) [2] [%] | Inhibition of IGS5 (result in words) [3] | IC50 [3] [nM] | also measured
1 |  | angiotensin-1 (DRVYIHPFHL) [Angiotensin 1] | 15*** % | >95 |  |  | Formation of angiotensin II on degradation by IGS5 [1]: ***degradation of angiotensin I does not result in formation of angiotensin II
2 | hydrolyze | CC[C@H](C)[C@@H]1NC(=O)[C@H](CCCNC(=N)N)NC(=O)[C@H](CC(=O)O)NC(=O)[C@H](CCSC)NC(=O)[C@H](CCCNC(=N)N)NC(=O)CNC(=O)CNC(=O)[C@H](Cc2ccccc2)NC(=O)[C@@H](NC(=O)[C@H](CO)NC(=O)[C@H](CO)NC(=O)[C@H](CCCNC(=N)N)NC(=O)[C@H](CCCNC(=N)N)NC(=O)[C@H](CC(C)C)NC(=O)[C@@H](N)CO)CSSC[C@@H](C(=O)N[C@@H](CC(N)=O)C(=O)N[C@@H](CO)C(=O)N[C@@H](Cc2ccccc2)C(=O)N[C@@H](CCCNC(=N)N)C(=O)N[C@@H](Cc2ccc(O)cc2)C(=O)O)NC(=O)CNC(=O)[C@H](CC(C)C)NC(=O)CNC(=O)[C@H](CO)NC(=O)[C@H](CCC(N)=O)NC(=O)[C@H](C)NC(=O)CNC1=O [ANP, atrial natriuretic peptide] | 5% | >95 |  |  | % Hydrolysis by IGS5 Polypeptide ([1]; 500 ng IGS5 polypeptide): 80%
3 |  | RPPGFSPFR [Bradykinin, bradykinin] | 100% |  |  |  | % Hydrolysis by IGS5 Polypeptide ([1]; 10 ng IGS5 polypeptide): 62%
4 |  | CC(C)C[C@H](NP(=O)(O)O[C@@H]1O[C@@H](C)[C@H](O)[C@@H](O)[C@H]1O)C(=O)N[C@@H](Cc1c[nH]c2ccccc12)C(=O)O [Phosphoramidon] |  |  | inhibited; also recorded: inhibition | 18 | 
5 |  | substance P | 100% | >95 |  |  | 
6 |  | O=C(O)C(Cc1ccc2c(c1)oc1ccccc12)NCP(=O)(O)O (centres unmarked) [CGS-35066] |  |  | not inhibited; also recorded: no inhibition | 1300 | 
7 |  | Mca-Asp-Ile-Ala-Trp-Phe-Dpa-Thr-Pro-Glu-His-Val-Val-Pro-Tyr-Gly-Leu-Gly-COOH (Mca-DIAWF[Dpa]TPEHVVPYGLG-OH; SMILES CC[C@H](C)[C@H](NC(=O)[C@H](CC(=O)O)NC(=O)Cc1cc(=O)oc2cc(OC)ccc12)C(=O)N[C@@H](C)C(=O)N[C@@H](Cc1c[nH]c2ccccc12)C(=O)N[C@@H](Cc1ccccc1)C(=O)N[C@@H](CNc1ccc([N+](=O)[O-])cc1[N+](=O)[O-])C(=O)N[C@H](C(=O)N1CCC[C@H]1C(=O)N[C@@H](CCC(=O)O)C(=O)N[C@@H](Cc1c[nH]cn1)C(=O)N[C@H](C(=O)N[C@H](C(=O)N1CCC[C@H]1C(=O)N[C@@H](Cc1ccc(O)cc1)C(=O)NCC(=O)N[C@@H](CC(C)C)C(=O)NCC(=O)O)C(C)C)C(C)C)[C@@H](C)O) [17 aa Big ET 1] | 41% |  |  |  | 
8 | hydrolyze | big endothelin (CSCSSLMDKECVYFCHLDIIWVNTPEHVVPYGLGSPRS) [Big ET-1] |  | 42 |  |  | 
9 |  | O=C(O)CNC(=O)C(CS)Cc1ccccc1 (centres unmarked) [Thiorphan] |  |  | not efficiently inhibited; also recorded: no inhibition | > 1000 | 

Row | Compound | Hydrolysis by IGS5 in vitro (result in words) [1] | % Hydrolysis by IGS5 Polypeptide [1, 4] | % Hydrolysis by SEP (Ikeda, Emoto et al., 1999) [2] [%] | Inhibition of IGS5 (result in words) [3] | IC50 [3] [nM] | also measured
10 | CC[C@H](C)[C@H](NC(=O)[C@H](CC(=O)O)NC(=O)[C@H](CC(C)C)NC(=O)[C@H](Cc1c[nH]cn1)NC(=O)[C@@H]1CSSC[C@H](N)C(=O)N[C@@H](CO)C(=O)N[C@H]2CSSC[C@H](NC(=O)[C@H](CCC(=O)O)NC(=O)[C@H](CCCCN)NC(=O)[C@H](CC(=O)O)NC(=O)[C@H](CCSC)NC(=O)[C@H](CC(C)C)NC(=O)[C@H](CO)NC(=O)[C@H](CO)NC2=O)C(=O)N[C@@H](C(C)C)C(=O)N[C@@H](Cc2ccc(O)cc2)C(=O)N[C@@H](Cc2ccccc2)C(=O)N1)C(=O)N[C@H](C(=O)N[C@@H](Cc1c[nH]c2ccccc12)C(=O)O)[C@@H](C)CC [ET-1, endothelin] | hydrolyze | <30% | 92 |  |  | 
